Where a name gives a salt, the structure may show the parent alone. Read-outs that look alike come from different tables or passages of the source.
How the values were obtained:
[1] = target: nicotinic receptors containing the α7 subunit (Rattus norvegicus, UniProt Q05941); assay: biochemical; format: binding
[2] = target: nicotinic receptors containing the α4β2 subunit (Rattus norvegicus, UniProt P09483+P12390); assay: Affinity for nicotinic receptors containing the α4β2 subunit, [3H]-cytisine binding to rat brain membranes; settings: read-out: Percentage of inhibition of the specific binding of [3H]-cytisine at a dose of 1 μM, for the α4β2 subunit
Experimental: The compounds of the invention were also studied as regards their affinity for nicotinic receptors containing the α4β2 subunit according to the methods described by Anderson and Arneric, Eur. J. Pharmacol (1994), 253, 261, and by Hall et al., Brain Res. (1993), 600, 127.
Male Sprague Dawley rats weighing 150 to 200 g are decapitated and the entire brain is removed quickly, homogenized in 15 volumes of 0.32 M sucrose solution at 4° C. and then centrifuged at 1000×g for 10 min. The pellet is discarded and the supernatant is centrifuged at 20 000×g for 20 min at 4° C. The pellet is recovered and homogenized using a Polytron™ mill in 15 volumes of double-distilled water at 4° C., followed by centrifugation at 8000×g for 20 min. The pellet is discarded and the supernatant and the buffy coat are centrifuged at 40 000×g for 20 min, the pellet is recovered, resuspended in 15 ml of double-distilled water and centrifuged again at 40 000×g, before being stored at −80° C.
On the day of the experiment, the tissue is thawed slowly and suspended in 3 volumes of buffer. 150 μl of this membrane suspension are incubated at 4° C. for 120 min in the presence of 100 μl of 1 nM [^3H]-cytisine in a final volume of 500 μl of buffer, in the presence or absence of test compound. The reaction is stopped by filtration on Whatman GF/B™ filters pretreated with polyethyleneimine, the filters are rinsed with 2×5 ml of buffer at 4° C. and the radioactivity retained on the filter is measured by liquid scintigraphy. The non-specific binding is determined in the presence of 10 μM (−)-nicotine; the non-specific binding represents […] of the total binding recovered on the filter. For each concentration of test compound, the percentage of inhibition of the specific binding of [^3H]-cytisine is determined, at doses of 1 μM and 10 μM. For the most affine compounds of the invention, the IC50 value is calculated, which is the concentration of compound that inhibits the specific binding by 50%.

[3] = compound at 1 μM, 1 nM [3H]-cytisine, rat brain membranes

Chain of nicotinic receptors containing the α7 subunit (Q05941 23-502): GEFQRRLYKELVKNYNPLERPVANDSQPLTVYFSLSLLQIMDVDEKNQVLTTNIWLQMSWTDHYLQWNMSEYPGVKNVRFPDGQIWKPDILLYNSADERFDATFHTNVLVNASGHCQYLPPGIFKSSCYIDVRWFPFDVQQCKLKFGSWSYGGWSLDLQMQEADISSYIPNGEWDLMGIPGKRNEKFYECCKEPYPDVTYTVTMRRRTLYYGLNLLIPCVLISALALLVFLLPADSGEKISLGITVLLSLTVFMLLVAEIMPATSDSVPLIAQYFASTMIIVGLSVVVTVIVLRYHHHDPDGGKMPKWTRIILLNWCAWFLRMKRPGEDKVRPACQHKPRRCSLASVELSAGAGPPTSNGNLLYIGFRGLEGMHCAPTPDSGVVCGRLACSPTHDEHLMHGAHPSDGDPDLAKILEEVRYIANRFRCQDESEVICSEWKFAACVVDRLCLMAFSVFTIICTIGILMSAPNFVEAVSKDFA
Chain of nicotinic receptors containing the α4β2 subunit (P09483 31-630): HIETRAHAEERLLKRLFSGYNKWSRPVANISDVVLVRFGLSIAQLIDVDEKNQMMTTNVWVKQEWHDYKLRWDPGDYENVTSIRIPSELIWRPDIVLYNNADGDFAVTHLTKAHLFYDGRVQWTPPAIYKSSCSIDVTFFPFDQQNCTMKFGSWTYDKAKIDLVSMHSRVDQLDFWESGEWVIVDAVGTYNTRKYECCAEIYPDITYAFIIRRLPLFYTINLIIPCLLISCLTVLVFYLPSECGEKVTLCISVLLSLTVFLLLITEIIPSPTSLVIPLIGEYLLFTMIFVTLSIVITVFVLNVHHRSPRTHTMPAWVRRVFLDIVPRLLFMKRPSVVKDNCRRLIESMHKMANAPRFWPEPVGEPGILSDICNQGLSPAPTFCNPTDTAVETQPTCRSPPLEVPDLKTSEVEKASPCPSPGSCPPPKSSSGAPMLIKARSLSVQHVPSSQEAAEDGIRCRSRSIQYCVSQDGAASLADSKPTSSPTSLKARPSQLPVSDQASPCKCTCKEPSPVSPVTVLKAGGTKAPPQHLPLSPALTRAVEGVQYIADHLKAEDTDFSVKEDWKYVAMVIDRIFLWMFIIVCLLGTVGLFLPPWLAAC
Chain of nicotinic receptors containing the α4β2 subunit (P12390 25-500): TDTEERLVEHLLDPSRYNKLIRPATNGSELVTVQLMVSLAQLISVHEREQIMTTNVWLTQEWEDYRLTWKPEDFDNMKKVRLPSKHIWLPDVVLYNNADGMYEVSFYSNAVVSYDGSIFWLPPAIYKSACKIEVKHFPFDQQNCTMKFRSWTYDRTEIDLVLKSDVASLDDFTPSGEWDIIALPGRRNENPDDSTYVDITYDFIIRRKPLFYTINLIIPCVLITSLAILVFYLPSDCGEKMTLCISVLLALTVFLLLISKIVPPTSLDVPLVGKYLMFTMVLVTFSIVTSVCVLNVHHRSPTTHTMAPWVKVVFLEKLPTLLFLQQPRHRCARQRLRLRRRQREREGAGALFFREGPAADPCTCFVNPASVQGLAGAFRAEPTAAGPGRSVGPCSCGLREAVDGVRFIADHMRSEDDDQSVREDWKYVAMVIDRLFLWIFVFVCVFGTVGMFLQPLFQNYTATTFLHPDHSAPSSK

| Structure (SMILES) | melting point [°C] | further results |
| --- | --- | --- |
| C1=CC2(c3ccc(-c4cscn4)nc3)CCN(C1)C2 (stereo not drawn) (as salt: HBr) | 272 to 274 | – |
| C1=CC2(c3ccc(-n4ccnc4)nc3)CCN(C1)C2 (single isomer, unassigned) [Compound 11] | – | IC50 ([1]; read-out: IC50 α7): 83 nM; inhibition at 1 µM [2]: 36% |
| C1=CC2(c3ccc(-c4ncc[nH]4)nc3)CCN(C1)C2 (single isomer, unassigned) (as salt: HBr) [Compound 14] | 234 to 236 | – |
| C1=CC2(c3ccc(-c4c[nH]cn4)nc3)CCN(C1)C2 (single isomer, unassigned) [Compound 9] | – | IC50 [1]: 300 nM; inhibition at 1 µM [2, 3]: 24% |
| CC(C)Cn1cc(-c2ccc(C34C=CCN(CC3)C4)cn2)cn1 (stereo not drawn) (as salt: HBr) | 104 to 106 | – |
| C1=CC2(c3ccc(-c4ncc[nH]4)nc3)CCN(C1)C2 (single isomer, unassigned) [Compound 14] | – | IC50 [1]: 99 nM; inhibition at 1 µM [2, 3]: 45% |
| C1=CC2(c3ccc(-c4cc[nH]n4)nc3)CCN(C1)C2 (stereo not drawn) (as salt: HBr) | 273 to 275 | – |
| CCCn1cc(-c2ccc(C34C=CCN(CC3)C4)cn2)cn1 (stereo not drawn) (as salt: HBr) | 190 to 192 | – |
| Cn1cc(-c2ccc(C34CCCN(CC3)C4)cn2)cn1 (racemic) | 138 to 140 | – |
